In patent US20250327794A1, “FLUOROMETRIC METHODS FOR DETECTION OF ALLERGIC SENSITIVITY TO ENVIRONMENTAL, FOODSTUFF, AND MEDICAMENT STIMULANTS” (CELL SCIENCE SYSTEMS CORPORATION, priority 2022, published 2025):

How the values were obtained:
Type in all cases: cell-based, human
[1] = tested on: eosinophils; assay: Eosinophil activation: RH 123 signal in CD193(+)/CD16(-) gated cells
Text: Activation of eosinophils from human blood samples following exposure to exogenous stimulants was investigated using flow cytometry analysis of RH 123 fluorescence, as well as cell surface markers CD16 and CD193, and side scattering profiles. CD193 (CCR3; Chemokine C—C motif receptor 3) is a surface marker expressed in eosinophils and basophils. FIGS. 23A-23C show density plots of CD193 fluorescence signal on channel 3 (FL3-A) for DHR 123 only (FIG. 23A), DHR 123+PMA stimulant (FIG. 23B), and DHR 123+DM stimulant (FIG. 23C) following exposure to stimulant for 1.5 hours. FIGS. 23D-23F show corresponding gated RH 123 results (MFI=32944, MFI=70320, and MFI=28522, respectively). FIGS. 24A-24C show density plots of CD193 fluorescent signals at channel 3 (FL3-A) for DHR 123 only (FIG. 24A), DHR 123+DM stimulant (FIG. 24B), and DHR 123+RWP stimulant (FIG. 24C) following exposure to stimulant for 2.5 hours. FIGS. 24D-24F show corresponding gated RH 123 results (FIG. 24D, DHR 123 only: MFI=10156; FIG. 24E, DHR 123+DM stimulant: MFI=19911, and […], DHR 123+RWP stimulant: MFI=17210).
Eosinophil population was selected using CD193(+) and CD16(−) expression profiles (shown in FIGS. 23A-23C and […] as encircled). Eosinophil population was reduced in PMA stimulant, DM stimulant and RWP stimulant exposed groups. In addition, DHR 123 signals in gated eosinophils was higher than DHR 123 only control group after 2.5-hour incubation. Thus, it was concluded that eosinophils are activated by dust mite and ragweed pollen stimulants according to this method.

[2] = tested on: basophils; assay: Basophil activation: RH 123 signal in CD123(+)/CD16(-) gated cells
Text: Activation of basophils from human blood samples following exposure to exogenous stimulants was investigated using flow cytometry analysis of RH 123 fluorescence, as well as cell surface markers CD16 and CD193, and side scattering profiles. CD123 is a cell surface marker that is expressed on basophils and eosinophils. FIGS. 25A-25C show density plots of CD123 signals at channel 4 (FL4-A) for DHR 123 only (FIG. 25A), DHR 123+PMA stimulant (FIG. 25B), and DHR 123+DM stimulant exposed group (FIG. 25C) following exposure to stimulant for 1.5 hours. FIGS. 25D-25F show corresponding gated RH 123 results (MFI=2055, MFI=6388, and MFI=3023, respectively). FIGS. 26A-26C show density plots of CD123 signals at channel 4 (FL4-A) for DHR 123 control group (FIG. 26A), DHR 123 and dust mite stimulant-exposed group (FIG. 26B), and DHR 123 and ragweed pollen stimulant-exposed group (FIG. 26C) following exposure to stimulant for 2.5 hours. FIGS. 26D-26F show corresponding gated RH 123 results (MFI=1800, MFI=3299, and MFI=1270, respectively).
Basophil population was selected by having CD123(+)/CD16(−) expression profiles, along with lower side scattering (shown in FIGS. 25A-25C and FIGS. 26A-26C as encircled). In contrast to reducing eosinophil population for different allergen treated groups, basophil population appeared stable over the experiment time period (1.5 hours and 2.5 hours).

[3] = tested on: granulocytes; assay: Citrullinated histone H3 flow cytometry blood test (extracellular trap formation)
Text: Detection of extracellular traps formation was incorporated to improve flow cytometry analysis of granulocyte subpopulations. […] This example describes detection of granulocyte activation following exposure of human blood to exogenous stimulant, using dihydrorhodamine 123, propidium iodide, and citrullinated histone H3 staining.
Peripheral blood samples were collected, diluted, maintained, treated, lysed, and fixed as previously described. Samples were blocked as previously described and incubated with staining buffer containing a 1:400 dilution of Cit-H3 antibody (Cayman Chemical, Michigan, USA) for 30 min at RT. Following two wash steps, the samples were incubated with APC-conjugated secondary (1:200) (Columbia Biosciences, Maryland, USA) for 30 min and subsequent washing steps were performed to remove unbound antibodies. Cells were washed twice and resuspended in PBS prior to analysis using a BD Accuri C6 Flow Cytometer (BD Biosciences). Statistical analysis was performed using the FlowJo v10 (FlowJo). NETs were defined by the in-tandem use of the classis extracellular DNA/viability marker PI(+) and the extracellular trap marker Cit-H3(+). NET formation was quantified as a fold-change relative to the mean of the negative control samples.

[4] = tested on: white blood cells; assay: Propidium iodide (PI) staining by flow cytometry, channel 3 FL3-A
Description: Cell viability determination using DNA staining was incorporated to improve flow cytometry analysis of granulocyte subpopulations. […] Throughout Example 2, additional exogenous stimulants were tested for their ability to instigate granulocyte release of ROS.
Flow cytometry analysis of human blood samples was performed following exposure to exogenous dust mite (“DM”) stimulant using time course measurements of RH 123 and PI fluorescence. Density plots and histograms were determined for samples containing: control cells only, DHR 123 only, DHR 123+PMA stimulant (positive control), DHR 123+DM stimulant, and DHR 123+3× DM stimulant, following incubation times of 0.5 hours (FIGS. 9A-9J), 1.5 hours (FIGS. 10A-10J), and 2.5 hours (FIGS. 11A-11J), respectively. Propidium iodide staining was used as a measure of cell viability.
Flow cytometry analysis of human blood samples was performed following exposure to exogenous DM, ragweed pollen (RWP), milk (MLK), cucumber (CUC), and basil (BAS) stimulants using RH 123 and PI fluorescence measurement. Density plots and histograms were determined for samples containing: control cells, DHR 123 only, DHR 123+PMA stimulant, DHR 123+DM stimulant, DHR 123+RWP stimulant (1×: 2.5 μL; 2×: 5.0 μL), DHR 123+MLK stimulant (5 μL), DHR 123+CUC stimulant (5 μL), and DHR 123+BAS stimulant (5 μL), following an incubation times of 0.5, 1.5, and 2.5 hours. See RH 123 (FL1-A) density plots at FIGS. 13A-13H; RH 123 (FL1-A) histograms at FIGS. 14A-14H; propidium iodide (PI) (FL3-A) density plots at FIGS. 15A-15H; PI (FL3-A) histograms at FIGS. 16A-16H).
DHR 123 and PI flow cytometry blood testing was repeated using increased amounts of stimulant (8 μL of DM stimulant or RWP stimulant per 100 μL blood) and incubated for 2.5 hours.

[5] = 1-3 hr incubation, DHR 123 and PMA

CCCCCCCCCCCCCC(=O)O[C@@H]1[C@@H](C)[C@@]2(O)[C@@H](C=C(CO)C[C@]3(O)C(=O)C(C)=C[C@@H]23)[C@@H]2C(C)(C)[C@]12OC(C)=O [PMA, Phorbol-12-Myristate-13-Acetate]
CD193 signal over incubation time [1, 5]: decreased | gated RH 123 signal MFI, CD193 gated ([1]; 1.5 hours exposure, DHR 123 only control MFI=32944): 70320 | eosinophil population (in words) ([1]; CD193(+) and CD16(−) population in stimulant exposed groups): reduced | CD123 signal over incubation time [2, 5]: decreased | gated RH 123 signal MFI, CD123 gated ([2]; 1.5 hours exposure, DHR 123 only control MFI=2055): 6388 | basophil activation (in words) ([2]; RH 123 signal vs DHR 123 only control): induced the activation of basophils | RH 123 (FL1-A) and PI (FL3-A) fluorescence signal compared with cell-only group [3]: higher | percentage cells positive for citrullinated histone H3 signals ([3]; after gating on FL3-A and FL4-A): high | PI staining signal (channel 3, FL3-A) ([3]; repeat, 8 μL stimulant/100 μL blood): stronger signals | MFI (2.5 h) FL3-A ([4]; PMA or DM 2 μL/100 μL blood (Table 4)): 17,902.33 | Mean FL3-A (2.5 h) ([4]; PMA, RWP1 2.5 μL, MLK, CUC, BAS 5 μL per 100 μL blood (Table 6)): 34,645.62 | MFI (2.5 h) FL3-A ([4]; increased stimulant, 8 μL DM or RWP per 100 μL blood (Table 7)): 11,914.00
